This is an account of results in US4093722A, “Sulfonylimidazolidone substituted cephalosporins, antibacterial compositions containing them, and methods of combatting bacteria employing them” (Bayer Aktiengesellschaft, priority 1974, dated 1978).

For one experiment, the system named is B. subtilis. Put plainly: Antibiotic activity of electropherogram spot. The format is cell-based.
Another experiment relates to Pseudomonas aeruginosa. Put plainly: Antibiotic activity of electropherogram spot. Format: cell-based.
Another experiment deals with Escherichia coli. Description: Antibiotic activity of electropherogram spot. Format: cell-based.
Experiment [1] can be described thus: Antibiotic activity of electropherogram spot (germ not stated). Format: cell-based.
For experiment [2], the system named is Neisseria catarrhalis sp. Description: In vitro turbidity test (Muller-Hinton broth). The format is cell-based. The conditions noted are these: 100 μg/ml, 24 hours incubation.
Experiment [3] has as its system Corynebacterium diphteriae gravis. Description: In vitro turbidity test (Muller-Hinton broth). Format: cell-based. The conditions noted are these: 100 μg/ml, 24 hours incubation.
Another experiment relates to Providencia. Put plainly: In vitro turbidity test (Muller-Hinton broth). Format: cell-based. The conditions noted are these: 100 μg/ml, 24 hours incubation.
Experiment [4] has as its system Streptococcus pyogenes W. Description: In vitro turbidity test (Muller-Hinton broth). The format is cell-based. The note with it: 100 μg/ml, 24 hours incubation.
Experiment [5] deals with Pasteurella pseudotuberculosis. The format is cell-based. The note with it: 100 μg/ml, 24 hours incubation.
A further experiment relates to Lactobacillus sp. Description: In vitro turbidity test (Muller-Hinton broth). The conditions noted are these: 100 μg/ml, 24 hours incubation. Format: cell-based.
In experiment [6] the test system is Bordetella bronchiseptica. Description: In vitro turbidity test (Muller-Hinton broth). Format: cell-based. The note with it: 100 μg/ml, 24 hours incubation.
The subject of experiment [7] is Proteus, indole negative and indole positive sp. Put plainly: In vitro turbidity test (Muller-Hinton broth). Format: cell-based. The conditions noted are these: 100 μg/ml, 24 hours incubation.
The subject of experiment [8] is Staphylococcus aureus 133. Put plainly: In vitro turbidity test (Muller-Hinton broth). The note with it: 100 μg/ml, 24 hours incubation. Format: cell-based.
Experiment [9] concerns Diplococcus pneumoniae sp. Description: In vitro turbidity test (Muller-Hinton broth). The format is cell-based. The conditions noted are these: 100 μg/ml, 24 hours incubation.
For another experiment, the system named is Salmonella sp. Put plainly: In vitro turbidity test (Muller-Hinton broth). Format: cell-based. The note with it: 100 μg/ml, 24 hours incubation.
The test system of experiment [10] is Enterobacter aerogenes sp. Description: In vitro turbidity test (Muller-Hinton broth). Format: cell-based. The conditions noted are these: 100 μg/ml, 24 hours incubation.
A further experiment has as its system Brucella sp. Format: cell-based. The note with it: 100 μg/ml, 24 hours incubation.
The subject of the next experiment is Haemophilis influenzae. Put plainly: In vitro turbidity test (Muller-Hinton broth). The note with it: 100 μg/ml, 24 hours incubation. The format is cell-based.
In a further experiment the test system is Serratia marcescens. Put plainly: In vitro turbidity test (Muller-Hinton broth). The format is cell-based. The conditions noted are these: 100 μg/ml, 24 hours incubation.
In experiment [11] the test system is Corynebacterium pyogenes M. Description: In vitro turbidity test (Muller-Hinton broth). Format: cell-based. The conditions noted are these: 100 μg/ml, 24 hours incubation.
The test system of a further experiment is Escherichia coli BE. Put plainly: In vitro turbidity test (Muller-Hinton broth). The note with it: 100 μg/ml, 24 hours incubation. Format: cell-based.
For a further experiment, the system named is Klebsiella pneumoniae. Put plainly: In vitro turbidity test (Muller-Hinton broth). The note with it: 100 μg/ml, 24 hours incubation. The format is cell-based.
A further experiment relates to Shigella sp. Put plainly: In vitro turbidity test (Muller-Hinton broth). The conditions noted are these: 100 μg/ml, 24 hours incubation. The format is cell-based.
A further experiment concerns Enterococcus sp. Put plainly: In vitro turbidity test (Muller-Hinton broth). The conditions noted are these: 100 μg/ml, 24 hours incubation. The format is cell-based.
The test system of experiment [12] is Staphylococcus aureus 133. Put plainly: Animal experiments with white mice (intraperitoneal infection). The note with it: Staphylococcus aureus, 133, sc; white mice CF1, subcutaneous, 1 administration 30 minutes after infection (1 × dose); 50% survive after 24 hours. Format: in vivo, white mice of strain CF1 infected with Staphylococcus aureus. As to the method: (§1) The white mice of strain CF1 were infected intraperitoneally with the species of bacteria indicated.
(§2) Determination of the ED50 after 24 hours
(§3) Therapy: 1 administration 30 minutes after infection.
(§4) The ED50 is the dose at which 50% of the infected animals still survive after 24 hours.

The next experiment concerns Escherichia coli C 165. Described as above. The format is in vivo, white mice of strain CF1 infected with Escherichia coli. The conditions noted are these: C165, sc, white mice CF1, subcutaneous, 1 administration 30 minutes after infection (1 × dose), 50% survive after 24 hours. The method, then: as §1, §2, §3, §4
In a further experiment the test system is Klebsiella. The description is as above. Format: in vivo, white mice of strain CF1 infected with Klebsiella. The conditions noted are these: sc, white mice CF1, subcutaneous, 1 administration 30 minutes after infection (1 × dose), 50% survive after 24 hours. The method, then: as §1, §2, §3, §4
In experiment [13] the test system is bacteria from the genus Pseudomonades. The conditions noted are these: known art; cited from earlier work.

Take `CC(=O)OCC1=C(C(=O)[O-])N2C(=O)C(NC(=O)[C@H](NC(=O)N3CCNC3=O)c3ccccc3)[C@H]2SC1.[Na+]` (stereo partly drawn) [Example 1, sodium 7-{D-α-[(2-oxo-imidazolidin-1-yl)-carbonylamino]-phenylacetamido}-3-acetoxymethyl-ceph-3-em-4-carboxylate]: the “antibiotic activity of the electropherogram spot” value (shortened to “antibiotic activity”) in the experiment on B. subtilis, in the experiment with Pseudomonas aeruginosa and with Escherichia coli was “only one spot with antibiotic activity” throughout.

On to `CC1=C(C(=O)O)N2C(=O)C(NC(=O)[C@H](NC(=O)N3CCNC3=O)c3ccccc3)[C@H]2SC1` (stereo partly drawn) [Example 2, 7-{D-α-[(2-Oxo-imidazolidin-1-yl)-carbonylamino]-phenylacetamido}-3-methyl-ceph-3-em-4-carboxylic acid], for which the “antibiotic activity” value in [1] was “only one spot with antibiotic activity”.

Consider `CC(=O)OCC1=C(C(=O)[O-])N2C(=O)C(NC(=O)[C@H](NC(=O)N3CCN(C)C3=O)c3ccccc3)[C@H]2SC1.[Na+]` (stereo partly drawn) [Example 3, sodium 7-{D-α-[(3-methyl-2-oxo-imidazolidin-1-yl)-carbonylamino]-phenylacetamido}-3-acetoxymethyl-ceph-3-em-4-carboxylate], for which the freedom from turbidity entry (in experiment [2]; in [3]; with Providencia; in experiment [4]; in experiment [5]; in the experiment on Lactobacillus sp.) was “free from turbidity” in each case. The freedom from turbidity result (in [6]; in [7]; in experiment [8]; in experiment [9]; with Salmonella sp.; in [10]) was “free from turbidity” in each case. Also, the freedom from turbidity result (in the experiment with Brucella sp.; in the experiment with Haemophilis influenzae; in the experiment with Serratia marcescens; in [11]; in the experiment with Escherichia coli BE; in the experiment with Klebsiella pneumoniae) was “free from turbidity” in each case. Moreover, the freedom from turbidity result in the experiment on Shigella sp. and with Enterococcus sp. was “free from turbidity” each time.

On to `CC(=O)OCC1=C(C(=O)[O-])N2C(=O)C(NC(=O)[C@H](NC(=O)N3CCN(S(C)(=O)=O)C3=O)c3ccccc3)[C@H]2SC1.[Na+]` (stereo partly drawn) [Example 6, Sodium 7-{D-α-[(2-oxo-3-mesyl-imidazolidin-1-yl)-carbonylamino]-phenylacetamido}-3-acetoxymethyl-ceph-3-em-4-carboxylate], for which the freedom from turbidity entry (in experiment [2]; in experiment [3]; with Providencia; in [4]; in [5]; in the experiment with Lactobacillus sp.) was “free from turbidity” in each case. Moreover, the freedom from turbidity entry (in experiment [6]; in [7]; in experiment [8]; in experiment [9]; in the experiment on Salmonella sp.; in [10]) was “free from turbidity” each time. For the same compound, the freedom from turbidity entry (in the experiment with Brucella sp.; in the experiment on Haemophilis influenzae; in the experiment on Serratia marcescens; in experiment [11]; in the experiment with Escherichia coli BE; with Klebsiella pneumoniae) was “free from turbidity” each time. For the same compound, the freedom from turbidity result in the experiment with Shigella sp. and in the experiment with Enterococcus sp. was “free from turbidity” in each case. For the same compound, the 50% effective dose (ED50) – broadly, the dose that gives a 50% effect, or the effect in half of the subjects – in experiment [12] is 10 mg/kg; in the experiment with Escherichia coli C 165, 200 mg/kg; in the experiment with Klebsiella, 150 mg/kg. Further, the “antibiotic activity” value in experiment [1] was “only shows one spot with antibiotic activity”.

`CC(=O)OCC1=C(C(=O)[O-])N2C(=O)C(NC(=O)[C@H](NC(=O)N3CCN(S(=O)(=O)c4ccccc4)C3=O)c3ccccc3)[C@H]2SC1.[Na+]` (stereo partly drawn) [Example 7, Sodium 7-{D-α-[(2-oxo-3-phenylsulphonyl-imidazolidin-1-yl)-carbonylamino]-phenylacetamido}-3-acetoxymethyl-ceph-3-em-4-carboxylate]: the freedom from turbidity entry (in [2]; in [3]; with Providencia; in [4]; in experiment [5]; in the experiment with Lactobacillus sp.) was “free from turbidity” in each case. Besides, the freedom from turbidity entry (in [6]; in [7]; in experiment [8]; in [9]; in the experiment on Salmonella sp.; in experiment [10]) was “free from turbidity” in each case. Further, the freedom from turbidity result (in the experiment with Brucella sp.; in the experiment on Haemophilis influenzae; in the experiment on Serratia marcescens; in [11]; in the experiment with Escherichia coli BE; in the experiment on Klebsiella pneumoniae) was “free from turbidity” each time. Further, the freedom from turbidity result in the experiment with Shigella sp. and in the experiment with Enterococcus sp. was “free from turbidity” throughout.

As to `CC(=O)OCC1=C(C(=O)O)N2C(=O)C(NC(=O)C(N)c3ccccc3)[C@H]2SC1` (stereo partly drawn) [cephaloglycine, 7-(α-amino-phenylacetamido)-3-acetoxymethyl-ceph-3-em-4-carboxylic acid], in experiment [13], the “activity against infections caused by Pseudomonades” value is reported as “not active”.
